Among the data in a melting point compilation (Tetko et al.; mined from patent text by program, amines drawn as free bases though some values may be those of a salt) are melting point values, retold here.

Each structure is given as a SMILES string.

The melting point is the temperature, or range, at which the solid turns liquid.

Consider `CCCCNc1c(NCc2ccccc2)cc(C(=O)O)cc1S(N)(=O)=O`, for which the melting point was 198 to 199 °C.

As to `Cc1ccc(S(=O)(=O)OCC(=O)CC2CCC(C)CC2)cc1` (stereo not given), the melting point lay within 42 to 43.5 °C.

In turn, `CSc1ncccc1NC(=O)CCCCCCCCSc1nc2ccccc2o1` displayed a melting point of 84 to 85 °C.

With `CCCCC(Cn1cnc([N+](=O)[O-])c1)c1ccc(Cl)cc1Cl` (stereo not given), the melting point is 67 to 69 °C.

Consider `CC(=O)c1cnccc1-c1c(-c2ccccc2)nn2ccccc12`, for which the melting point lay in the range of 159 to 161 °C.

In turn, `O=C(O)COc1ccc(Nc2nccc(-c3ccncc3)n2)cc1` showed a melting point of 308 to 310 °C.

`Cc1cc(C)c(Nc2nc(C)ncc2S(=O)(=O)c2ccc(-c3ccncc3)cc2)c(C)c1`: the melting point lay in the range of 232 to 234 °C.

For the compound `OCCOc1ccc2c(-c3ccccc3F)noc2c1Cl`, the melting point came out at 112 °C.

For the compound `O=C(CCl)Nc1c(I)cc(I)c(C(=O)O)c1I`, the melting point was in the range of 253 to 255 °C.

Take `O=C(CCNC(=O)NOCCCl)NCC1CC1`: the melting point lay in the range of 105 to 106 °C.

`COC(=O)Nc1cn2nc(OCc3cc(OC)c(OC)c(OC)c3Br)ccc2n1` showed a melting point of 218 to 219 °C.

`O=c1[nH]c2sc3c(F)cccc3c2[nH]c1=O`: the melting point was more than 35 °C.

`CS(=O)(=O)Nc1ccc(OC2CCN(c3ccncc3)CC2)cc1` had a melting point of 191 to 192 °C.

Regarding `CN(C(=O)CNc1cc(-c2ccccc2)nc(-c2ccc(C(F)(F)F)cc2)n1)C1CC1`, the melting point was 179 to 180 °C.

`NC(=O)c1ncn2c1[C@@H]1CCN1C(=O)c1c(Br)cccc1-2`: the melting point fell in the range of 314 to 317 °C.

`O=C1N(N2CCOCC2)c2ccccc2C1(Cc1ccncc1)Cc1ccncc1`: the melting point is 200 to 203 °C.

On to `Cc1oc(-c2ccccc2)nc1CCCc1ccc(CC(C(=O)O)c2cccnc2)cc1` (stereo not given), for which the melting point lay in the range of 112 to 114 °C.

The compound `CS(=O)(=O)Nc1nc2nc(NC3CCOCC3)ncc2cc1Oc1ccc(F)cc1F` yielded a melting point of 199 to 204 °C.

Compound `COC(=O)c1c(C(=O)OC)c2sc3ccccc3n2c1-c1ccc(Cl)cc1` gave a melting point of 172 to 173 °C.

Turning to `O=C(O)c1ccc(OCCCCCCO)cc1F`, the melting point was in the range of 98 to 99 °C.

On to `CCOc1cc(-c2cc(C(F)F)n3ncc(C(=O)Nc4cccc(S(C)(=O)=O)c4)c3n2)ccc1C(F)(F)F`, for which the melting point came out at 211 °C.

For the compound `CCn1c2c(c3ccccc31)Cc1c(C(=O)OC)c(C(=O)OC)c(C)n1C2`, the melting point fell in the range of 202 to 203 °C.

The compound `CCCCn1c(=O)c2c(NC)n(C)nc2n(Cc2ccccc2)c1=O` yielded a melting point of 146 to 148 °C.

`CCC1C=CCCC1C(O)C(N)=O` (stereo not given) had a melting point of 156 to 158 °C.

`Nc1cccc2c1CN(c1nc3c(cc1F)c(=O)c(C(=O)O)cn3C1CC1)C2` yielded a melting point of more than 300 °C.

In turn, `CCOC(=O)C1=C(C)NC(N)=C(C(=O)OCC)C1c1ccccc1C#N` (stereo not given) displayed a melting point of 208 °C.

As to `COc1cccc(OCC(N)=O)c1-c1c(C#N)c2ccccn2c1Nc1c(C)cccc1C`, the melting point fell in the range of 227 to 229 °C.

`C=CC(=O)Oc1c(Cc2cc(C)cc(C(C)(C)C)c2O)cc(C)cc1C(C)(C)C`: the melting point lay within 132 to 134 °C.

`CCCCC1(CC)COP(=O)(Cc2ccc(N)cc2)OC1` (stereo not given) yielded a melting point of 90 to 91 °C.

`CS(=O)(=O)c1ccc(C(CC2CCCC2)C(=O)Nc2ccncn2)cc1Br` (stereo not given): the melting point was in the range of 75 to 80 °C.

Take `Cc1cc(OCCN)ccc1NC(=O)c1ccc(N2CCNCC2)cc1`: the melting point was more than 250 °C.

In turn, `Cc1c(NC(=O)c2ccc(-c3cccc(F)c3)cc2)ccc2cc(CN3CCCC3)cnc12` yielded a melting point of 158 to 159 °C.

For `CNn1cc(C(=O)O)c(=O)c2ccc(C)nc21`, the melting point lay within 215 to 217 °C.

In turn, `Cc1c(-c2ccccc2)oc2c(S(=O)(=O)N(C)CCO)cccc2c1=O` yielded a melting point of 146 to 147 °C.

`OCCc1nnc(S)s1` gave a melting point of 101 to 103 °C.

`CC(O)(C(=O)O)c1ccc(-c2ccccc2)c(F)c1` (stereo not given): the melting point fell in the range of 161 to 163 °C.

Turning to `CC1(Oc2ccccc2)CN(Cc2ccc(COc3cccc4c3CN(C3CCC(=O)NC3=O)C4=O)cc2)C1` (stereo not given), the melting point is 127 to 129 °C.

Consider `O=c1[nH]c(=O)n(CCCCBr)c2cc(Cl)ccc12`, for which the melting point was 180 to 182 °C.

Turning to `CC(C)c1c(OCCNC(=O)OC(C)(C)C)noc1-c1cccs1`, the melting point lay within 94 to 95 °C.

Compound `Cc1ccc(-c2noc3c(Cl)c(OCC(=O)O)ccc23)cc1` returned a melting point of 257 to 260 °C.

Compound `CCCCc1nc(Cl)c(Cl)[nH]1` yielded a melting point of 122 to 123 °C.

`O=C(O)CCCCC(=O)NC1C=CCCCC1` (stereo not given) registered a melting point of 132 to 133 °C.

`COc1ccc(-c2nn(CCCCCCBr)c(=O)c3ccccc23)cc1OC`: the melting point lay within 83 to 84 °C.

Turning to `COC(=O)c1ccc(OC)c(C=C2COc3ccc(OCc4ccccc4)cc3C2=O)c1`, the melting point was in the range of 167 to 169 °C.

Compound `Cc1cccc(C(=O)Nc2ccc(-c3ccc(-c4ccccc4Cl)n3Cc3cccc(N)n3)cc2)c1` displayed a melting point of 108 to 118 °C.

For the compound `O=C1NC(=O)C(CC(=O)N2CCN(c3cccc(CNC(=O)c4nc5ccccc5c(=O)[nH]4)c3)CC2)N1` (stereo not given), the melting point was 280 to 282 °C.

In turn, `COCC(C)Nc1cc(-c2ccnc(Nc3cccc(Cl)c3)n2)ccn1` (stereo not given) registered a melting point of 143 to 144 °C.

`Fc1cc(CC2(Cc3ccnc(F)c3)c3cccnc3-c3cccnc32)ccn1` gave a melting point of 134 to 135 °C.

The compound `CC(C)c1cccc(F)c1NC(=S)N/N=C/c1ccc(-c2ncn(-c3ccc(OC(F)(F)F)cc3)n2)cc1` registered a melting point of 210 to 212 °C.

For the compound `O=C(O)C1CCC(OCc2ccccc2)CC1` (stereo not given), the melting point was in the range of 55 to 64 °C.

Regarding `CCN1c2ncccc2C(=O)N(C)c2ccc(-c3cccn3C(C)=O)nc21`, the melting point lay in the range of 106 to 108 °C.

Regarding `N[C@H]1CCCC[C@@H]1Nc1ccnc2cc(Cl)ccc12`, the melting point turned out to be 160 °C.

With `COc1cc([N+](=O)[O-])c2nccc(C)c2c1OCCCCCc1ccco1`, the melting point was 47 to 49 °C.

Consider `COC(=O)C(Cl)=C(NC1CC1)C(C(=O)OC)C(=O)C(F)F` (stereo not given), for which the melting point was 55 to 57 °C.

For the compound `Cc1ccc2ccc3c(c2c1)CC(=O)O3`, the melting point is 170 to 171 °C.

In the case of `CCNC(=O)c1ccc(N2CCNCC2)cc1`, the melting point fell in the range of 131 to 134 °C.

The compound `Cc1ncsc1C(=O)Nc1ccc(-n2nc(C3CC3)cc2C2CC2)c(F)c1` yielded a melting point of 102 to 106 °C.

`COc1nnc(-c2ccccc2)cc1C` returned a melting point of 62 to 64 °C.

On to `COc1cc(Br)c(OC)c(CC(=O)O)c1`, for which the melting point is 62 to 65 °C.

In turn, `CC(C)(C)C(NC(=O)c1cc(F)cc(F)c1)Nc1c(Nc2cccnc2Cl)c(=O)c1=O` (stereo not given) had a melting point of 215 to 217 °C.

Take `COc1ccc(-c2ccc3c(Cl)c(OC)ccc3c2)cc1`: the melting point fell in the range of 158 to 164 °C.

For the compound `CCOC(=O)c1c(C)nc(NN)c2nnn(CC)c12`, the melting point lay in the range of 75 to 78 °C.

The compound `CC(=O)Oc1ccc(C2(c3ccc(OC(C)=O)cc3)C(Cl)(Cl)C23CCCCC3)cc1` came in with a melting point of 162 to 163 °C.

As to `O=C(O)COC1=C(Cc2ccc3c(Cl)cccc3c2)C(=O)CCC1`, the melting point lay within 236 to 238 °C.

`Cc1c(N2C[C@H]3CCOC[C@@]3(N)C2)c(F)cc2c(=O)c(C(=O)O)cn([C@@H]3C[C@@H]3F)c12`: the melting point lay within 158 to 160 °C.

As to `CC(=O)c1c(C)c(C#N)c2nc(C3CC3)oc2c1N1CC[C@H](N(C)C)C1`, the melting point was 142 °C.

`O=C1Cc2cc(F)cc(C(=O)c3ccc(F)cc3)c2N1` had a melting point of 195 to 196 °C.

As to `N#Cc1nc(Cl)c(Cl)c(NN)c1Cl`, the melting point lay in the range of 178 to 181 °C.

On to `Cc1cccc(C)c1OP(=O)(c1ccccc1)c1cc(O)ccc1O` (stereo not given), for which the melting point amounted to 172 °C.

With `Cc1cc(C(C)(C)C)c(O)c(N)c1N`, the melting point was in the range of 129 to 136 °C.

`CCCc1c(CSc2nnc(SCCCS(=O)(=O)CC(=O)O)s2)ccc(C(C)=O)c1O` showed a melting point of 122 to 125 °C.

`COc1cc([N+](=O)[O-])c2nc(C(F)(F)F)cc(O)c2c1` registered a melting point of 138 to 140 °C.

`Cn1nc(COc2cccc3c2CN(C2CCC(=O)NC2=O)C3=O)cc1CN1CCOCC1` (stereo not given) showed a melting point of 125 to 127 °C.

The compound `CCOC(=O)C(C)Oc1ccc2ccc(Oc3cc(-n4c(=O)cc(C(F)(F)F)n(C)c4=O)c(F)cc3C#N)cc2c1` (stereo not given) gave a melting point of 133 °C.

Take `OCC=C(c1ccccc1)c1ccccc1`: the melting point was in the range of 112 to 115 °C.

For the compound `CCCC[C@H](NC(=O)[C@H](CC(C)C)NC(=O)c1cccc(C)c1)C(=O)CSCc1ccco1`, the melting point is 123 to 126 °C.

With `Cn1ccnc1Sc1ccc(Nc2c(C#N)cnc3cc(F)ccc23)cc1Cl`, the melting point was 268 to 272 °C.

Compound `CCOC(=O)c1ccc(NCCCOc2ccccc2)cc1` had a melting point of 73 to 74 °C.

`CC(C)c1[nH]nc2c1C(=O)c1c(NC(=O)NN3CCN(C)CC3)cccc1-2`: the melting point fell in the range of 231 to 233 °C.

In the case of `COCC(=O)NCc1cccc2c1C(=O)N(C1CCC(=O)NC1=O)C2=O` (stereo not given), the melting point was in the range of 196 to 198 °C.

`CC(=NNc1nc(Cl)c(-c2c(F)cc(F)cc2F)c(NC(C)C(F)(F)F)n1)C(F)(F)F` (stereo not given) had a melting point of 205 to 207 °C.

Compound `FC(F)(F)CNc1ccc2c(c1)N1CCN=C1S2` displayed a melting point of 212 °C.

`COc1cc(N)c([N+](=O)[O-])cc1C(F)(F)F`: the melting point is 56 °C.

With `CCC1c2c(ncn2C)CCN1C(=S)NC(C)C` (stereo not given), the melting point was determined as 196 °C.

`CC(=O)OC1(c2nc3ccccc3s2)C=CC(=O)C=C1` had a melting point of 101 °C.

`O=C1CCC(N2Cc3c(OCc4ccc(OCCN5CCOCC5)cc4)cccc3C2=O)C(=O)N1` (stereo not given) came in with a melting point of 203 to 205 °C.

In the case of `Cc1ccc(-c2ccccc2NC(=N)N(C)C)cc1`, the melting point is 147 to 148 °C.

The compound `O=C(c1ccccc1)N1CCCC1c1cccc(O)c1` (stereo not given) yielded a melting point of 167 to 169 °C.

Compound `N#CC(c1ccccc1Cl)N1CCc2sccc2C1` (stereo not given) displayed a melting point of 121 to 124 °C.

`COC(=O)c1ccccc1S(=O)(=O)NC(=O)c1cc(C)n(C)n1`: the melting point fell in the range of 176 to 177 °C.
